{"source": "patent US10092574B2", "about": "“Inhibitors of polynucleotide repeat-associated RNA foci and uses thereof” (VALORISATION-RECHERCHE, LIMITED PARTNERSHIP, priority 2013, dated 2018)", "type_in_all_cases": "cell-based, human", "key": {"[1]": {"tested_on": "Normal or DM1 myoblasts", "assay": "Cytotoxicity assay (Hoescht 33342 / propidium iodide, High Content Screening microscope)", "details": "for cellular toxicity: 7 days (FIG. 10)", "procedure": "The cellular toxicity of compounds 15 and 32, and their analogs was also measured using a validated cytotoxicity assay. Normal or DM1 myoblasts were treated with 20 μM of compound or DMSO. The ratio of viable cells was measured with a High Content Screening microscope in live cells treated with Hoescht 33342 (labels all cells) and propidium iodide (labels dead cells). The total number of cells was counted and the number of dead cells was subtracted to obtain the number of viable cells, which is presented as a ratio (drug-treated versus DMSO-treated cells). The percentage of dead cells was also measured using propidium iodide.\nThe cellular toxicity of the compounds was also measured in a dose-response assay. In this assay, normal (M908) and patient (DM1) myoblasts were treated for 7 days with compound 32 or 196 at concentrations varying from 5 to 60 μM. Cell number and cell death was quantified by High Content Screening microscope, as specified above. […] Indeed, the ratio of viable cells at 20 μM of compound 15 is 0.22 (FIG. 10), while for compound 196, an analogue of compound 15, it is above 1 at the same concentration (FIG. 14C)."}, "[2]": {"tested_on": "CUGBP1", "assay": "Western blot of CUGBP1 protein levels in myoblasts", "details": "DM1 myoblasts, 20 μM, 7 days (FIG. 7)", "procedure": "Human myoblasts were obtained from the Myosix institute associated with the Association Frangaise contre les Myopathies (AFM). Five primary myoblast lines were obtained as controls, and one line from a DM1 patient with a 3.8 Kb CTG triplet amplification corresponding to approximately 1250 CTG repeats. The human myoblasts are cultivated in HAM-F10 media (SIGMA N6635) with 15% FBS, 1% chick embryo extract, and 390 ng/ml of dexamethasone. One day before adding compounds, 2×10^5 cells were plated in 100 mm plates (for CUGBP1 western blot or RT-PCR alternative splicing assay) or 2×10^4 cells/well are seeded in 12-well plates containing 12 mm round glass coverslips (for FISH to detect RNA foci). One day after plating, media is replaced with fresh media containing the compounds at the desired concentration in this manner: the media is put in a screw-cap tube and heated at 37° C. The 20 mM compound stock in 100% DMSO is pipetted directly into the media and the tube is mixed well by inversion and gentle vortexing, and immediately overlayed on the cells. Pure DMSO is used for the control cells. Final concentrations on myoblasts are never higher than 0.5%. This procedure is repeated twice during the seven days of treatment, the media is thus replaced with fresh media containing compound every 2-3 days. Cells are collected or fixed for FISH after one week.\nFor Western blots, CUGBP1 was detected with the 3B1-3D11 monoclonal antibody (mAb) (SIGMA C5112) and GAPDH was detected with the 6C5 mAb (Millipore MAB374). The enhanced chemiluminescence signal (ECL) was acquired and quantified with the ChemiDoc™ MP imaging system (Bio-Rad). For alternative splicing assays, total RNA was collected with Trizol™ (Invitrogen), and 1 μg was used for reverse transcription with random primers with the RevertAid™ H Minus M-MuL RT (Fermentas) according to manufacturer's instructions. For MBNL2, PCR amplification was performed with primers 5′-[…]-3′ (SEQ ID NO:1) and 5′-[…]-3′ (SEQ ID NO:2). SERCA1 was amplified with primers 5′-[…]-3′ (SEQ ID NO:3) and 5′-[…]-3′ (SEQ ID NO:4). For TNNT2 (cardiac Troponin T), PCR was carried out with primers 5′-[…]-3′ (SEQ ID NO:5) and 5′-[…]-3′ (SEQ ID NO:6). The alternative splicing of the hnRNPA2/B1 transcript was detected with the primers 5′-[…]-3′ (SEQ ID NO:7) and 5′-[…]-3′ (SEQ ID NO:8). PCR was performed with Taq using standard conditions but the number of amplification cycles was optimized to be in the quantitative range for each gene. The products of PCR amplification were resolved on 3.5% agarose gels containing Gelred™ (Biotium) and images were acquired and quantified with the ChemiDoc™ MP imaging system (Bio-Rad). […]"}, "[3]": {"tested_on": "MBNL2, MBNL1, Sercal and TNNT2 pre-mRNAs", "assay": "Splicing assays on the panel of MBNL2, MBNL1, Sercal and TNNT2 pre-mRNAs in DM1 myoblasts", "details": "20 μM, 7 days (FIG. 11)", "procedure": "Human myoblasts were obtained from the Myosix institute associated with the Association Frangaise contre les Myopathies (AFM). Five primary myoblast lines were obtained as controls, and one line from a DM1 patient with a 3.8 Kb CTG triplet amplification corresponding to approximately 1250 CTG repeats. The human myoblasts are cultivated in HAM-F10 media (SIGMA N6635) with 15% FBS, 1% chick embryo extract, and 390 ng/ml of dexamethasone. One day before adding compounds, 2×10^5 cells were plated in 100 mm plates (for CUGBP1 western blot or RT-PCR alternative splicing assay) or 2×10^4 cells/well are seeded in 12-well plates containing 12 mm round glass coverslips (for FISH to detect RNA foci). […]\nFor Western blots, CUGBP1 was detected with the 3B1-3D11 monoclonal antibody (mAb) (SIGMA C5112) and GAPDH was detected with the 6C5 mAb (Millipore MAB374). The enhanced chemiluminescence signal (ECL) was acquired and quantified with the ChemiDoc™ MP imaging system (Bio-Rad). […] The alternative splicing of the hnRNPA2/B1 transcript was detected with the primers 5′-[…]-3′ (SEQ ID NO:7) and 5′-[…]-3′ (SEQ ID NO:8). PCR was performed with Taq using standard conditions but the number of amplification cycles was optimized to be in the quantitative range for each gene. […]"}}, "note": "“Also recorded” adds a separate entry of the source.", "data": [{"smiles": "Cc1c(C(=O)N(Cc2ccccc2)Cc2cccs2)cnn1-c1ccc(Cl)cc1", "note": "[Compound 46]", "values": [{"measurement": "cellular toxicity", "setting": "[1]; 20 μM", "result": "little toxicity"}]}, {"smiles": "CCCc1c(C(=O)N2CCC(c3ccccc3OC)CC2)cnn1-c1ccccc1", "note": "[Compound 43]", "values": [{"measurement": "reduction of CUGBP1 levels", "setting": "[2]", "result": 45, "unit": "%"}]}, {"smiles": "CCCN(CCC)S(=O)(=O)c1ccc(NC(=O)c2cnn(-c3ccccc3)c2C)cc1", "note": "[Compound 196, N-(4-(N,N-Dipropylsulfamoyl)phenyl)-5-methyl-1-phenyl-1H-pyrazole-4-carboxamide]", "values": [{"measurement": "ratio of viable cells (drug-treated versus DMSO-treated)", "setting": "[1]; 20 μM, 7 days (FIG. 10, FIG. 14C)", "result": "above 1"}, {"measurement": "main phenotype at higher concentrations", "setting": "[1]; normal (M908) and DM1 myoblasts, 7 days, 5 to 60 μM", "result": "cytostatic effect"}, {"measurement": "cytotoxicity in dose-response assay", "setting": "[1]; normal (M908) and DM1 myoblasts, 7 days, concentration of 20 μM and below (FIGS. 14A-D)", "result": "little cytotoxicity"}, {"measurement": "correction of mis-splicing of all the pre-mRNAs tested", "setting": "[3]", "result": "significantly corrects mis-splicing of all the pre-mRNAs tested"}]}, {"smiles": "CCC(C(=O)Nc1ccc(S(=O)(=O)NC23CC4CC(CC(C4)C2)C3)cc1)c1ccccc1", "note": "(stereo not shown) [Compound 31]", "values": [{"measurement": "cellular toxicity", "setting": "[1]; 20 μM", "result": "exhibits cellular toxicity; also recorded: some toxicity"}]}]}
